Where a chain is given by its changes, count along the chain named.

Here are results for 1 compound from article PMC2680961, “Homologous desensitization of signalling by the alpha (α) isoform of the human thromboxane A2 receptor: A specific role for nitric oxide signalling” (Biochimica et Biophysica Acta, 2007).

One test has as its target T1, TPβ^WT (Homo sapiens, UniProt P21731).
T1 construct: expressed in transfected cells
Kind of test: [3H]SQ29,548 radioligand binding, Scatchard analysis, HEK.TPβ^WT. How it is done: (§1) Cells were harvested by centrifugation at 500×g at 4 °C for 5 min and washed three times with ice-cold Ca^2+/Mg^2+-free phosphate-buffered saline (PBS). TP radioligand binding assays were carried out at 30 °C for 30 min in 100 μl reactions in the presence of 0–40 nM [^3H] […] Protein determinations were carried out using the Bradford assay.
(§2) Radioligand binding and Scatchard analysis data were analysed using GraphPad Prisim V4.0 programme (GraphPad Software Inc., San Diego CA, USA). Statistical analyses were carried out using the unpaired Student's t test using the Statworks Analysis Package. p-values ≤ 0.01 indicated statistically significant differences.

The next test addresses T2, TPα^S329A (Homo sapiens, UniProt P21731, S329A).
T2 construct: expressed in transfected cells
T2 sequence (P21731 1-343 S329A): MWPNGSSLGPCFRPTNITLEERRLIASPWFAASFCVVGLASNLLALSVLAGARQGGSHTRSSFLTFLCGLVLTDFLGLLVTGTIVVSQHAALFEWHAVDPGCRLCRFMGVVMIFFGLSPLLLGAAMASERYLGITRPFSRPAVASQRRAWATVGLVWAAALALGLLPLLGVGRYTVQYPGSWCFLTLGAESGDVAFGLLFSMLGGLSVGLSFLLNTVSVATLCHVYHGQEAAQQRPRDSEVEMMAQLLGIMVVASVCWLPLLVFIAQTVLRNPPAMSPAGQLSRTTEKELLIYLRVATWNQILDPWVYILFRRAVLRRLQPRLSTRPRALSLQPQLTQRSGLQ
Kind of test: [3H]SQ29,548 radioligand binding, Scatchard analysis, HEK.TPα^S329A. How it is done: as §1, §2

The next test addresses T3, TPα^T337A (Homo sapiens, UniProt P21731, T337A).
T3 construct: expressed in transfected cells
T3 sequence (P21731 1-343 T337A): T2 sequence (P21731 1-343 S329A) with A329S, T337A
Nature of the test: [3H]SQ29,548 radioligand binding, Scatchard analysis, HEK.TPα^T337A. How it is done:
as §1, §2

T1 sequence (P21731 1-407 isoform P21731-2): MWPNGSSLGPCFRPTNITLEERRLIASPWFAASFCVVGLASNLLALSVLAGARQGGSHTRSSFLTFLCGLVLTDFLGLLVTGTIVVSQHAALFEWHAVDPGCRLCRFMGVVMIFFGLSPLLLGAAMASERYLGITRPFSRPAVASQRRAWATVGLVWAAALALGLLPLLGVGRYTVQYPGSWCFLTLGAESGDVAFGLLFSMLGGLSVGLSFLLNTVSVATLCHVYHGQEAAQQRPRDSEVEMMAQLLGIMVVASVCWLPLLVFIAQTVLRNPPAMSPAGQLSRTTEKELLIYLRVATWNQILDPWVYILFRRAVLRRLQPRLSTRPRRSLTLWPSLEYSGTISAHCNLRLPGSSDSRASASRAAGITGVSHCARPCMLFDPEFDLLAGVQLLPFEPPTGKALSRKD

As for `O=C(O)CCC/C=C\C[C@@H]1[C@H](CNNC(=O)Nc2ccccc2)[C@H]2CC[C@@H]1O2` [SQ29,548], the “Bmax (pmol/mg protein ± S.E.M.)” value at TPβ^WT is 3.64 ± 0.03 pmol/mg protein; on TPα^S329A, 4.43 ± 0.04 pmol/mg protein; at TPα^T337A, 4.23 ± 0.04 pmol/mg protein.
